Laboratory results from patent US9889113B2, “Method for reversing, preventing, delaying or stabilizing soft tissue calcification” (Panion & BF Biotech, Inc., priority 2006, dated 2018).

Columns and labels:
[1] = system: patients with end stage renal disease (ESRD); assay: Treatment-emergent adverse events in the dose-ranging study; assay type: in vivo, human
Description: Objectives: (1) To determine the effect of ferric citrate at doses of 2, 4 and 6 g daily, administered TID (three times a day), for 28 days on serum phosphate (PO4) levels in patients with end stage renal disease (ESRD). (2) To evaluate the safety of ferric citrate at doses of 2, 4, 6 g daily, administered TID, for 28 days in patients with ESRD.
Study Design: Randomized, double-blind, placebo-controlled, dose-ranging study to assess the effect of ferric citrate on serum phosphate concentrations in patients with ESRD on hemodialysis. Patients are assessed at Study Days 14 and 28 for effectiveness as measured by serum phosphate concentrations. Patients who received one or more doses of study medication are also assessed for safety.

[2] = system: patients with end stage renal disease (ESRD); assay: Serum creatinine level in the open-label extension of the Phase II study; assay type: in vivo, human; settings: several patients who received 6 g/day
Description: Glomerular filtration rate (GFR) level correlates with structural kidney damage and is used as a golden standard to measure kidney function. GFR can be estimated by the biomarkers serum creatinine. As renal function deteriorates, kidney lost its function to excrete creatinine effectively and lead to creatinine retention in the body. Therefore, increase of serum creatinine indicates lowering GFR and is an important sign of kidney deterioration.
In an open-label extension of a Phase II clinical study: “randomized, double-blind, placebo-controlled, dose-ranging study of the effects of ferric citrate on serum phosphate in patients with end stage renal disease (ESRD)”, some of the patients were administered 2-6 g/day of ferric citrate and serum creatinine level was monitored to assess kidney function.

O=C([O-])CC(O)(CC(=O)[O-])C(=O)[O-].[Fe+3] [ferric citrate]
Abdominal Pain (Preferred Term): # Event ([1]; 2 g/day (N = 33)): 0
Abdominal Pain (Preferred Term): (%) ([1]; 2 g/day (N = 33)): (0.0) %
Diarrhea (Preferred Term): # Event ([1]; 2 g/day (N = 33)): 3
Diarrhea (Preferred Term): (%) ([1]; 2 g/day (N = 33)): (9.1) %
GI Disorder, Definitely (relationship): # Event ([1]; 2 g/day (N = 33)): 0
GI Disorder, Definitely (relationship): (%) ([1]; 2 g/day (N = 33)): (0.0) %
GI Disorder, Possibly (relationship): # Event ([1]; 2 g/day (N = 33)): 3
GI Disorder, Possibly (relationship): (%) ([1]; 2 g/day (N = 33)): (9.1) %
GI Disorder, Probably (relationship): # Event ([1]; 2 g/day (N = 33)): 2
GI Disorder, Probably (relationship): (%) ([1]; 2 g/day (N = 33)): (6.1) %
GI Disorders (System Organ Class): # Event ([1]; 2 g/day (N = 33)): 8
GI Disorders (System Organ Class): (%) ([1]; 2 g/day (N = 33)): (24.2) %
GI Disorders, Mild (severity): # Event ([1]; 2 g/day (N = 33)): 6
GI Disorders, Mild (severity): (%) ([1]; 2 g/day (N = 33)): (18.2) %
General Disorders (System Organ Class): # Event ([1]; 2 g/day (N = 33)): 4
General Disorders (System Organ Class): (%) ([1]; 2 g/day (N = 33)): (12.1) %
Infections and Infestations (System Organ Class): # Event ([1]; 2 g/day (N = 33)): 0
Infections and Infestations (System Organ Class): (%) ([1]; 2 g/day (N = 33)): (0.0) %
Skin and SC Tissue Disorders (System Organ Class): # Event ([1]; 2 g/day (N = 33)): 3
Skin and SC Tissue Disorders (System Organ Class): (%) ([1]; 2 g/day (N = 33)): (9.1) %
T#at1AE, Definitely (relationship): # Event ([1]; 2 g/day (N = 33)): 0
T#at1AE, Definitely (relationship): (%) ([1]; 2 g/day (N = 33)): (0.0) %
T#at1AE, Mild (severity): # Event ([1]; 2 g/day (N = 33)): 13
T#at1AE, Mild (severity): (%) ([1]; 2 g/day (N = 33)): (39.4) %
T#at1AE, Moderate (severity): # Event ([1]; 2 g/day (N = 33)): 6
T#at1AE, Moderate (severity): (%) ([1]; 2 g/day (N = 33)): (18.2) %
T#at1AE, Possibly (relationship): # Event ([1]; 2 g/day (N = 33)): 5
T#at1AE, Possibly (relationship): (%) ([1]; 2 g/day (N = 33)): (15.2) %
T#at1AE, Probably (relationship): # Event ([1]; 2 g/day (N = 33)): 2
T#at1AE, Probably (relationship): (%) ([1]; 2 g/day (N = 33)): (6.1) %
T#at1AE, Severe (severity): # Event ([1]; 2 g/day (N = 33)): 0
T#at1AE, Severe (severity): (%) ([1]; 2 g/day (N = 33)): (0.0) %
Total number of subjects with at least one adverse event (T#at1AE): # Event ([1]; 2 g/day (N = 33)): 16
Total number of subjects with at least one adverse event (T#at1AE): (%) ([1]; 2 g/day (N = 33)): (48.5) %
Abdominal Pain (Preferred Term): # Event ([1]; 4 g/day (N = 34)): 4
Abdominal Pain (Preferred Term): (%) ([1]; 4 g/day (N = 34)): (11.8) %
Diarrhea (Preferred Term): # Event ([1]; 4 g/day (N = 34)): 1
Diarrhea (Preferred Term): (%) ([1]; 4 g/day (N = 34)): (2.9) %
GI Disorder, Definitely (relationship): # Event ([1]; 4 g/day (N = 34)): 0
GI Disorder, Definitely (relationship): (%) ([1]; 4 g/day (N = 34)): (0.0) %
GI Disorder, Possibly (relationship): # Event ([1]; 4 g/day (N = 34)): 6
GI Disorder, Possibly (relationship): (%) ([1]; 4 g/day (N = 34)): (17.6) %
GI Disorder, Probably (relationship): # Event ([1]; 4 g/day (N = 34)): 2
GI Disorder, Probably (relationship): (%) ([1]; 4 g/day (N = 34)): (5.9) %
GI Disorders (System Organ Class): # Event ([1]; 4 g/day (N = 34)): 10
GI Disorders (System Organ Class): (%) ([1]; 4 g/day (N = 34)): (29.4) %
GI Disorders, Mild (severity): # Event ([1]; 4 g/day (N = 34)): 8
GI Disorders, Mild (severity): (%) ([1]; 4 g/day (N = 34)): (23.5) %
General Disorders (System Organ Class): # Event ([1]; 4 g/day (N = 34)): 2
General Disorders (System Organ Class): (%) ([1]; 4 g/day (N = 34)): (5.9) %
Infections and Infestations (System Organ Class): # Event ([1]; 4 g/day (N = 34)): 3
Infections and Infestations (System Organ Class): (%) ([1]; 4 g/day (N = 34)): (8.8) %
Skin and SC Tissue Disorders (System Organ Class): # Event ([1]; 4 g/day (N = 34)): 0
Skin and SC Tissue Disorders (System Organ Class): (%) ([1]; 4 g/day (N = 34)): (0.0) %
T#at1AE, Definitely (relationship): # Event ([1]; 4 g/day (N = 34)): 0
T#at1AE, Definitely (relationship): (%) ([1]; 4 g/day (N = 34)): (0.0) %
T#at1AE, Mild (severity): # Event ([1]; 4 g/day (N = 34)): 9
T#at1AE, Mild (severity): (%) ([1]; 4 g/day (N = 34)): (26.5) %
T#at1AE, Moderate (severity): # Event ([1]; 4 g/day (N = 34)): 3
T#at1AE, Moderate (severity): (%) ([1]; 4 g/day (N = 34)): (8.8) %
T#at1AE, Possibly (relationship): # Event ([1]; 4 g/day (N = 34)): 6
T#at1AE, Possibly (relationship): (%) ([1]; 4 g/day (N = 34)): (17.6) %
T#at1AE, Probably (relationship): # Event ([1]; 4 g/day (N = 34)): 2
T#at1AE, Probably (relationship): (%) ([1]; 4 g/day (N = 34)): (5.9) %
T#at1AE, Severe (severity): # Event ([1]; 4 g/day (N = 34)): 2
T#at1AE, Severe (severity): (%) ([1]; 4 g/day (N = 34)): (5.9) %
Total number of subjects with at least one adverse event (T#at1AE): # Event ([1]; 4 g/day (N = 34)): 12
Total number of subjects with at least one adverse event (T#at1AE): (%) ([1]; 4 g/day (N = 34)): (35.3) %
Abdominal Pain (Preferred Term): # Event ([1]; 6 g/day (N = 33)): 2
Abdominal Pain (Preferred Term): (%) ([1]; 6 g/day (N = 33)): (6.1) %
Diarrhea (Preferred Term): # Event ([1]; 6 g/day (N = 33)): 1
Diarrhea (Preferred Term): (%) ([1]; 6 g/day (N = 33)): (3.0) %
GI Disorder, Definitely (relationship): # Event ([1]; 6 g/day (N = 33)): 0
GI Disorder, Definitely (relationship): (%) ([1]; 6 g/day (N = 33)): (0.0) %
GI Disorder, Possibly (relationship): # Event ([1]; 6 g/day (N = 33)): 1
GI Disorder, Possibly (relationship): (%) ([1]; 6 g/day (N = 33)): (3.0) %
GI Disorder, Probably (relationship): # Event ([1]; 6 g/day (N = 33)): 5
GI Disorder, Probably (relationship): (%) ([1]; 6 g/day (N = 33)): (15.2) %
GI Disorders (System Organ Class): # Event ([1]; 6 g/day (N = 33)): 10
GI Disorders (System Organ Class): (%) ([1]; 6 g/day (N = 33)): (30.3) %
GI Disorders, Mild (severity): # Event ([1]; 6 g/day (N = 33)): 9
GI Disorders, Mild (severity): (%) ([1]; 6 g/day (N = 33)): (27.3) %
General Disorders (System Organ Class): # Event ([1]; 6 g/day (N = 33)): 4
General Disorders (System Organ Class): (%) ([1]; 6 g/day (N = 33)): (12.1) %
Infections and Infestations (System Organ Class): # Event ([1]; 6 g/day (N = 33)): 1
Infections and Infestations (System Organ Class): (%) ([1]; 6 g/day (N = 33)): (3.0) %
Skin and SC Tissue Disorders (System Organ Class): # Event ([1]; 6 g/day (N = 33)): 4
Skin and SC Tissue Disorders (System Organ Class): (%) ([1]; 6 g/day (N = 33)): (12.1) %
T#at1AE, Definitely (relationship): # Event ([1]; 6 g/day (N = 33)): 0
T#at1AE, Definitely (relationship): (%) ([1]; 6 g/day (N = 33)): (0.0) %
T#at1AE, Mild (severity): # Event ([1]; 6 g/day (N = 33)): 14
T#at1AE, Mild (severity): (%) ([1]; 6 g/day (N = 33)): (42.4) %
T#at1AE, Moderate (severity): # Event ([1]; 6 g/day (N = 33)): 2
T#at1AE, Moderate (severity): (%) ([1]; 6 g/day (N = 33)): (6.1) %
T#at1AE, Possibly (relationship): # Event ([1]; 6 g/day (N = 33)): 2
T#at1AE, Possibly (relationship): (%) ([1]; 6 g/day (N = 33)): (6.1) %
T#at1AE, Probably (relationship): # Event ([1]; 6 g/day (N = 33)): 5
T#at1AE, Probably (relationship): (%) ([1]; 6 g/day (N = 33)): (15.2) %
T#at1AE, Severe (severity): # Event ([1]; 6 g/day (N = 33)): 1
T#at1AE, Severe (severity): (%) ([1]; 6 g/day (N = 33)): (3.0) %
Total number of subjects with at least one adverse event (T#at1AE): # Event ([1]; 6 g/day (N = 33)): 17
Total number of subjects with at least one adverse event (T#at1AE): (%) ([1]; 6 g/day (N = 33)): (51.5) %
side effect ([1]; Phase II study): minimum side effect
serum creatinine level [2]: trend of decreased serum creatinine level
